According to patent publication US20210253651A1, “METHOD FOR PRODUCING ORGANIC COMPOUND-ENCAPSULATING FERRITIN” (Ajinomoto Co., Inc., priority 2018, published 2021):
Counter-ions that a name gives are not always drawn. Like-named read-outs stand apart in the source and are kept apart here.

Assays:
[1] = pKa of the organic compound; assay type: physicochemical; details: average of plural pKa values
Text: The pKa of the organic compound can be determined by a neutralization titration method (Kagaku Binran Kiso-hen I and II (Handbook of Chemistry, basic I and II) (Ver. 4) edited by The Chemical Society of Japan, Maruzen Publishing, 1993). […] When the organic compound has a single pKa value, the value is employed as the pKa of the organic compound.

[2] = target: T1, HER2a-FTH ferritin (Homo sapiens, UniProt P02794); assay: one-step incorporation of DOX into HER2a-FTH ferritin; assay type: physicochemical; details: pH 9, 50° C., 60 minutes, DOX 0.3 mg/L
T1 construct: pET20-FTH carrying a DNA encoding a human-derived ferritin H chain monomer as a template; made in house; host or cells: Escherichia coli BL21 (DE3), plasmid pET20-HER2a-FTH
T1 sequence (P02794 with tags, fused parts or gaps limits assumed): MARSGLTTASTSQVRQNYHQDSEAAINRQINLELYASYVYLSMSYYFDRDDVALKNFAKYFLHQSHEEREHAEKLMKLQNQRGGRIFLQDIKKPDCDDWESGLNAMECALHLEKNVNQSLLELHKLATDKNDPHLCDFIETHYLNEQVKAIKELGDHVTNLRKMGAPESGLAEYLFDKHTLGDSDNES
Experimental: First, PCR was carried out using pET20-FTH carrying a DNA encoding a human-derived ferritin H chain monomer as a template as well as the following primers: 5′-[…]-3′(SEQ ID NO: 15) and 5′-[…]-3′(SEQ ID NO: 16) in order to obtain a DNA encoding the human-derived ferritin H chain (HER2a-FTH) monomer in which a cancer recognition peptide (HER2a: MARSGL (SEQ ID NO: 14); M Houimel et al., Int. J. Cancer 92, 748-755. (2001) which is incorporated herein by reference in its entirety) is inserted and fused at the N-terminus of the ferritin monomer. The resulting PCR products were purified using Wizard DNA Clean-Up System (Promega Corporation), and then treated with restriction enzymes, Dpnl and Ndel (Takara Bio Inc.) for self-ligation in order to construct an expression plasmid (pET20-HER2a-FTH) carrying a gene encoding HER2a-FTH. […]
(§1) DOX was mixed with 1 mL of 50 mM Tris-HCl buffer (pH 9) that contains each mutate ferritin at a final concentration of 1 mg/mL, to achieve a final concentration of 0.3 mg/L, and then the resulting solutions were left to stand at 50° C. for 60 minutes. […] The concentration of contained protein was determined using the protein assay CBB solution (Nacalai Tesque, Inc.) as well as bovine albumin as a standard. The DOX concentration was determined based on analysis of the absorbance at 480 nm.

[3] = target: T2, FTH-U2AF ferritin (Homo sapiens, UniProt P02794); assay: one-step incorporation of DOX into FTH-U2AF ferritin; assay type: physicochemical; details: pH 9, 50° C., 60 minutes, DOX 0.3 mg/L
T2 construct: pET20-FTH carrying a DNA encoding a human-derived ferritin H chain monomer as a template; made in house; host or cells: Escherichia coli BL21 (DE3), plasmid pET20-FTH-U2AF
T2 sequence (P02794 with tags, fused parts or gaps): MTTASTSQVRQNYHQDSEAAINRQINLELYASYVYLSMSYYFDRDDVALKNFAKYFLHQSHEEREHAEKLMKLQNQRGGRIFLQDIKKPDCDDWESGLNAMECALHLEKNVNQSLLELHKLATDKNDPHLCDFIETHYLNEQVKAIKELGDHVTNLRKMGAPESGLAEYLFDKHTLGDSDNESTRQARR
Experimental: PCR was carried out using pET20-FTH carrying a DNA encoding a human-derived ferritin H chain monomer as a template as well as the following primers: 5′-[…]-3′ (SEQ ID NO: 18) and 5′-[…]-3′ (SEQ ID NO: 13), in order to obtain a DNA encoding the human-derived ferritin H chain (FTH-U2AF) in which an RNA recognition peptide (U2AF: TRQARR (SEQ ID NO: 17) R Tan and AD Frankel, Proc Natl Acad Sci USA 92, 5282-5286. (1995) which in incorporated herein by reference in its entirety)) is inserted and fused at the C-terminus of the ferritin monomer. The resulting PCR products were purified using Wizard DNA Clean-Up System (Promega Corporation), and then treated with restriction enzymes, DpnI and NdeI (Takara Bio Inc.) for self-ligation in order to construct an expression plasmid (pET20-FTH-U2AF) carrying a gene encoding FTH-U2AF monomer. […]
as §1

[4] = tested on: ferritin; details: cited from earlier work

For `COc1cccc2c1C(=O)c1c(O)c3c(c(O)c1C2=O)C[C@@](O)(C(=O)CO)C[C@@H]3OC1CC(N)C(O)C(C)O1` (stereo partly shown) [DOX, Doxorubicin hydrochloride], the pKa [1] was 8.42, the “incorporation efficiency of the reagent” value [2] was 14.6 % (wt) and the “incorporation efficiency of the reagent” value [3] was 17.9 % (wt). For the same compound, the “doxorubicin molecules encapsulated in ferritin” value ([4]; denaturing with urea and refolding) was “approximately 33 molecules”, the “doxorubicin molecules encapsulated in ferritin” value ([4]; disassembly at pH 2, reassembly at pH 7-9) was “approximately 28 molecules” and the “doxorubicin molecules encapsulated in ferritin” value ([4]; high pressure (200-800 MPa) for 6-20 hours) was 10-20 molecules. For the same compound, the “doxorubicin molecules encapsulated in ferritin” value ([4]; modified ferritin, pH 2 by addition of HCl) was 30-90 molecules.
